The structures appear in SMILES notation. pIC50: −log10 of the molar value.

Holding throughout (type): biochemical
One test deals with LCK (Homo sapiens, UniProt P06239). Nature of the test: Inhibition of a panel of kinases, in vitro HotSpot kinase assay: LCK. The following applies: D-compounds panel data; 1 μM ATP; read-out: IC50 LCK.
The target of the next test is T1, ITK (Homo sapiens, UniProt Q08881).
T1 sequence (Q08881 1-620): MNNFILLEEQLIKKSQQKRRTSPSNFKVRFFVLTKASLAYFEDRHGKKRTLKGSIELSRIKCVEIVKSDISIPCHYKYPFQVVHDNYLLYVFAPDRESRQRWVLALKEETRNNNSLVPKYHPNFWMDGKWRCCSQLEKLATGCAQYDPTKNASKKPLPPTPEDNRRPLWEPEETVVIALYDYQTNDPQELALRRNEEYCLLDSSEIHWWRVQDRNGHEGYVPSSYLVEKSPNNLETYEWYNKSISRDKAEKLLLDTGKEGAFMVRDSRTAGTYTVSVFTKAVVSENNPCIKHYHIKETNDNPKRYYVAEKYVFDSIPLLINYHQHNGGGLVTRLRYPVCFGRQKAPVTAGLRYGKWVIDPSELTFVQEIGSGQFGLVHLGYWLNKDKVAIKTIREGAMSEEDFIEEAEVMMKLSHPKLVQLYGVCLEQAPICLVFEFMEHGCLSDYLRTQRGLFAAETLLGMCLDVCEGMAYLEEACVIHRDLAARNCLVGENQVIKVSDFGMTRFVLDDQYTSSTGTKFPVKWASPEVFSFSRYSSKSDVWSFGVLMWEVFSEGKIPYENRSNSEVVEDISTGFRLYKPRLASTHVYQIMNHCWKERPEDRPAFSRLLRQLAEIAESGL
Nature of the test: Inhibition of a panel of kinases, in vitro HotSpot kinase assay: ITK. The following applies: D-compounds panel data; 1 μM ATP. The procedure:
(§1) The degree of inhibition of a panel of kinases is determined using the in vitro HotSpot kinase assay (purified enzymes, ^33P-ATP, an appropriate substrate and 1 μM ATP).

In the next test the target is EGFR (Homo sapiens, UniProt P00533). Nature of the test: Inhibition of a panel of kinases, in vitro HotSpot kinase assay: EGFR. The following applies: D-compounds panel data; 1 μM ATP. As to the method:
as §1

The next test deals with SRC (Homo sapiens, UniProt P12931). Nature of the test: Inhibition of a panel of kinases, in vitro HotSpot kinase assay: SRC. The settings on record: D-compounds panel data; 1 μM ATP. As to the method: as §1
Chain of SRC (P12931 whole entry): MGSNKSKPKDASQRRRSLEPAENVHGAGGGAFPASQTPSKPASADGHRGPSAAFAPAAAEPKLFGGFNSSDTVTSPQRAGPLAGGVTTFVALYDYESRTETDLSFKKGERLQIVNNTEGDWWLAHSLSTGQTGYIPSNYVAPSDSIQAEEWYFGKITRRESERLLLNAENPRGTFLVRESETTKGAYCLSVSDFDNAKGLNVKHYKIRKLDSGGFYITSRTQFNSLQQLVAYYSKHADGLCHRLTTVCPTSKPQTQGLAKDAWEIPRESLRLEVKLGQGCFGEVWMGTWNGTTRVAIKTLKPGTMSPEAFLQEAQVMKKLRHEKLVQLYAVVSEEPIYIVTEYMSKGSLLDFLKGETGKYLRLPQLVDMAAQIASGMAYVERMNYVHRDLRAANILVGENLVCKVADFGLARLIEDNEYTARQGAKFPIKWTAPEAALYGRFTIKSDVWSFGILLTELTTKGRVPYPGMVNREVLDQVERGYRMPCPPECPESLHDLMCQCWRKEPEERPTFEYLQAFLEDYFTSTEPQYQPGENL
The target of the next test is T2, TEC (Homo sapiens, UniProt P42680).
T2 sequence (P42680 1-631): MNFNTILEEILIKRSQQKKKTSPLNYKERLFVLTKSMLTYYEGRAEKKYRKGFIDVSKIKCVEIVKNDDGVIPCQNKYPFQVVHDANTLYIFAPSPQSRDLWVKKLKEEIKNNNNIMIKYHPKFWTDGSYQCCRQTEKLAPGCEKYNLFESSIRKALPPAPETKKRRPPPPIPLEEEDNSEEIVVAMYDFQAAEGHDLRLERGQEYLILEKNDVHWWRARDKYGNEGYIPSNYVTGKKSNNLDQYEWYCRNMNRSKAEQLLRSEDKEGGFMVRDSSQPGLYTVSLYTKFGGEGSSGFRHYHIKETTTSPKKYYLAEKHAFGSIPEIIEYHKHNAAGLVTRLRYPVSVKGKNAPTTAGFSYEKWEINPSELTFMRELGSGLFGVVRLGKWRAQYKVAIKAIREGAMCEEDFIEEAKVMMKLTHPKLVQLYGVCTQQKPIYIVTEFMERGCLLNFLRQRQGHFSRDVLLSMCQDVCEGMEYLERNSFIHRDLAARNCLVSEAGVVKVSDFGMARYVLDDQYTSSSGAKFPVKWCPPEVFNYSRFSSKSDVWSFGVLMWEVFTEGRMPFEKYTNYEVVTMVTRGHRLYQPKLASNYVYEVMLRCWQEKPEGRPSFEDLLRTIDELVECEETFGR
Kind of test: Inhibition of a panel of kinases, in vitro HotSpot kinase assay: TEC. The following applies: D-compounds panel data; 1 μM ATP. As to the method:
as §1

Chain of EGFR (P00533 25-1210): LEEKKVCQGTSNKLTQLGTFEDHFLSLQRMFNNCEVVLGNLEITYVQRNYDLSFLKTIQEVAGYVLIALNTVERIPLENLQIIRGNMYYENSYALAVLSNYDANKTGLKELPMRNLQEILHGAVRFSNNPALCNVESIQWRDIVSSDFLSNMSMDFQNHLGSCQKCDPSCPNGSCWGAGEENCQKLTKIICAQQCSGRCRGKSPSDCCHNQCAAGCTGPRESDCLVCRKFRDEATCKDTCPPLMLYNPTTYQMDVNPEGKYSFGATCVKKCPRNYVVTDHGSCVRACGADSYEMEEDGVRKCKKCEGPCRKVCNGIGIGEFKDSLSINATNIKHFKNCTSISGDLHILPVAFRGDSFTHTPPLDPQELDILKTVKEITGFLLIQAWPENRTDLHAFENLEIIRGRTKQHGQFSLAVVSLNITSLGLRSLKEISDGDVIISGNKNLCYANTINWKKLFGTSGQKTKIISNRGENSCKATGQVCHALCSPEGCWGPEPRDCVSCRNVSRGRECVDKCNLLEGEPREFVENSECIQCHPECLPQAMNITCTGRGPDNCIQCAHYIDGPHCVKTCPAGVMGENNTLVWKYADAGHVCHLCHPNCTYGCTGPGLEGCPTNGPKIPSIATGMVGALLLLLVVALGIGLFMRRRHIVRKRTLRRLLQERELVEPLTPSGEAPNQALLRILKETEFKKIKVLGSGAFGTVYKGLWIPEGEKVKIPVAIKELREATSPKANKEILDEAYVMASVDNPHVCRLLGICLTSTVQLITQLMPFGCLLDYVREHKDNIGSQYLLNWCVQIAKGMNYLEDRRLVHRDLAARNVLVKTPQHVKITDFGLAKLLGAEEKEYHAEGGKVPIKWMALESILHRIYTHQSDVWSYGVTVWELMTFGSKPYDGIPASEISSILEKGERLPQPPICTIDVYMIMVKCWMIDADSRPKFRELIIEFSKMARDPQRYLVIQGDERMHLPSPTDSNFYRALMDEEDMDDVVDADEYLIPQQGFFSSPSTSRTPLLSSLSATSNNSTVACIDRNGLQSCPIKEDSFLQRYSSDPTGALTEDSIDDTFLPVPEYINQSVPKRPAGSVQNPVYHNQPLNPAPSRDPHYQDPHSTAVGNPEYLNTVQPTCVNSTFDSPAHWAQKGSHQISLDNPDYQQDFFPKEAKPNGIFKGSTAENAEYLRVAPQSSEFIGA
Chain of LCK (P06239 whole entry): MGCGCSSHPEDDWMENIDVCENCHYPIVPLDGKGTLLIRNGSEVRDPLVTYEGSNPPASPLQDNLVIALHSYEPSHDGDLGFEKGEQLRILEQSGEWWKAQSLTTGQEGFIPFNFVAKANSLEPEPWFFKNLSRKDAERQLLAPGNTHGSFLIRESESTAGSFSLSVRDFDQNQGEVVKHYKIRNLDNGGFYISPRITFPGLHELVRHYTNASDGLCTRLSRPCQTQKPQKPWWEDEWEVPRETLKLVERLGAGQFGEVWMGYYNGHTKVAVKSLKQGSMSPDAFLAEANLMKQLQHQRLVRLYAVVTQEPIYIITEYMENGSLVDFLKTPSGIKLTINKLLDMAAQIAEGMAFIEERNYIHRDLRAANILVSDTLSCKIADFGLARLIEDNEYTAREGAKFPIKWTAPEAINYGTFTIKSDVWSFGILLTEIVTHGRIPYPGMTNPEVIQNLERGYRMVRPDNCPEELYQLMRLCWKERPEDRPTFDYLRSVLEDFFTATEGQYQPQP

For `C[C@@H]1[C@H](NC(=O)c2ccc(C3CC3)cc2)CCCN1c1cnc(C(N)=O)c(Nc2ccc(N3CCN(C)CC3)c(F)c2)n1` [Example D-146, 5-[(2R,3R)-3-(4-cyclopropylbenzamido)-2-methylpiperidin-1-yl]-3-{[3-fluoro-4-(4-methylpiperazin-1-yl)phenyl]amino}pyrazine-2-carboxamide], the negative logarithm of the IC50 (pIC50) is 7.00 to 8.00 on LCK; 7.00 to 8.00 on ITK; 6.00 to 7.00 against EGFR; 7.00 to 8.00 against SRC; 7.00 to 8.00 on TEC.

With `Cc1cc(Nc2nc(N3CCC[C@@H](NC(=O)c4ccc(C(C)(C)O)cc4)[C@H]3C)cnc2C(N)=O)sn1` [Example D-159, 5-[(2R,3R)-3-[4-(2-hydroxypropan-2-yl)benzamido]-2-methylpiperidin-1-yl]-3-[(3-methyl-1,2-thiazol-5-yl)amino]pyrazine-2-carboxamide], the pIC50 on LCK is 7.00 to 8.00; against ITK, 6.00 to 7.00; at EGFR, 6.00 to 7.00; against SRC, 7.00 to 8.00; against TEC, at least 8.00.

`C[C@@H]1[C@H](NC(=O)N(C)C)CCCN1c1cnc(C(N)=O)c(Nc2cnn(C)c2)n1` [Example D-128, 5-[(2R,3R)-3-[(dimethylcarbamoyl)amino]-2-methylpiperidin-1-yl]-3-[(1-methyl-1H-pyrazol-4-yl)amino]pyrazine-2-carboxamide]: the pIC50 at LCK was 6.00 to 7.00; against ITK it was 6.00 to 7.00; against EGFR, 5.00 to 6.00; on SRC, 6.00 to 7.00; against TEC, 7.00 to 8.00.

`Cc1cc(Nc2cc(N3CCC[C@@H](NC(=O)c4ccc(C5CC5)cc4F)[C@H]3C)cnc2C(N)=O)sn1` [Example D-116, 5-[(2R,3R)-3-(4-cyclopropyl-2-fluorobenzamido)-2-methylpiperidin-1-yl]-3-[(3-methyl-1,2-thiazol-5-yl)amino]pyridine-2-carboxamide]: the pIC50 on LCK was 7.00 to 8.00; on ITK, 5.00 to 6.00; at EGFR, 5.00 to 6.00; on SRC, 6.00 to 7.00; against TEC, 6.00 to 7.00.

For the molecule `C[C@@H]1[C@H](NC(=O)c2ccc(C3CC3)cc2)CCCN1c1cnc(C(N)=O)c(Nc2ccc(OC3CCCN(C)C3)cc2)n1` (stereo partly drawn) [Example D-105, 5-[(2R,3R)-3-(4-cyclopropylbenzamido)-2-methylpiperidin-1-yl]-3-({4-[(1-methylpiperidin-3-yl)oxy]phenyl}amino)pyrazine-2-carboxamide], the pIC50 at LCK is 7.00 to 8.00; against ITK, 7.00 to 8.00; on EGFR it was 6.00 to 7.00; against SRC, 7.00 to 8.00; on TEC, at least 8.00.

As to `C[C@@H]1CC[C@H](NC(=O)c2ccc(C3CC3)cc2)CN1c1cnc(C(N)=O)c(Nc2ccc(N3CCN(C)CC3)c(F)c2)n1` [Example D-149, 5-[(2R,5 S)-5-(4-cyclopropylbenzamido)-2-methylpiperidin-1-yl]-3-{[3-fluoro-4-(4-methylpiperazin-1-yl)phenyl]amino}pyrazine-2-carboxamide], the pIC50 on LCK is 6.00 to 7.00; on ITK it was 6.00 to 7.00; on EGFR it was under 5.00; against SRC, 6.00 to 7.00; on TEC, 6.00 to 7.00.

Turning to `Cc1nsc(Nc2nc(N3CCC[C@@H](NC(=O)N(C)C)[C@H]3C)cnc2C(N)=O)c1C` [Example D-119, 3-[(dimethyl-1,2-thiazol-5-yl)amino]-5-[(2R,3R)-3-[(dimethylcarbamoyl)amino]-2-methylpiperidin-1-yl]pyrazine-2-carboxamide], the pIC50 on LCK is 5.00 to 6.00; on ITK it was under 5.00; at EGFR, 6.00 to 7.00; against SRC it was 5.00 to 6.00; against TEC it was under 5.00.

As to `C[C@@H]1[C@H](NC(=O)c2ccc(C(C)(C)O)c(F)c2)CCCN1c1cnc(C(N)=O)c(Nc2cnn(C)c2)n1` [Example D-160, 5-[(2R,3R)-3-[3-fluoro-4-(2-hydroxypropan-2-yl)benzamido]-2-methylpiperidin-1-yl]-3-[(1-methyl-1H-pyrazol-4-yl)amino]pyrazine-2-carboxamide], the negative logarithm of the IC50 (pIC50) is 7.00 to 8.00 on LCK; 6.00 to 7.00 at ITK; 6.00 to 7.00 against EGFR; 7.00 to 8.00 against SRC; at least 8.00 at TEC.

As to `Cc1ccc(-c2cnc([C@H]3CCCN(c4cnc(C(N)=O)c(Nc5cc(C)ns5)n4)C3)[nH]2)cc1` [Example D-136, 3-[(3-methyl-1,2-thiazol-5-yl)amino]-5-[(3S)-3-[5-(4-methylphenyl)-1H-imidazol-2-yl]piperidin-1-yl]pyrazine-2-carboxamide], the negative-log IC50 (pIC50) on LCK was 6.00 to 7.00; on ITK, 5.00 to 6.00; on EGFR, 6.00 to 7.00; against SRC, 6.00 to 7.00; on TEC, 6.00 to 7.00.

For the molecule `C[C@@H]1[C@H](NC(=O)c2ccc(C3CC3)cc2)CCCN1c1cnc(C(N)=O)c(Nc2ccc(OC3C[C@H]4CC[C@@H](C3)N4C)cc2)n1` (stereo partly drawn) [Example D-106, 5-[(2R,3R)-3-(4-cyclopropylbenzamido)-2-methylpiperidin-1-yl]-3-[(4-{[(1R,5S)-8-methyl-8-azabicyclo[3.2.1]octan-3-yl]oxy}phenyl)amino]pyrazine-2-carboxamide], the pIC50 at LCK is 7.00 to 8.00; against ITK, 7.00 to 8.00; at EGFR, 6.00 to 7.00; at SRC, 7.00 to 8.00; against TEC, at least 8.00.

As for `C[C@@H]1[C@H](NC(=O)c2ccc(C3CC3)cc2)CCCN1c1cnc(C(N)=O)c(Nc2ccc(N3CCC(F)(F)CC3)cc2)n1` [Example D-96, 5-[(2R,3R)-3-(4-cyclopropylbenzamido)-2-methylpiperidin-1-yl]-3-{[4-(4,4-difluoropiperidin-1-yl)phenyl]amino}pyrazine-2-carboxamide], the pIC50 is under 5.00 on LCK; under 5.00 against ITK; under 5.00 against EGFR; under 5.00 against SRC; 7.00 to 8.00 against TEC.

The pIC50 is the IC50 on a negative log10 scale, so that one unit is a factor of ten.

Values taken from US20210070748A1, “INHIBITORS OF BRUTONS TYROSINE KINASE” (Pharmacyclics LLC, priority 2015, published 2021).
